Patent publication US7511061B2, “Triazoles as farnesyl transferase inhibitors” (Janssen Pharmaceutica N.V., priority 1999, dated 2009)

Target: farnesyl protein transferase (FPTase) (Homo sapiens, UniProt P49354+P49356)
Assay: In vitro assay for inhibition of farnesyl protein transferase
Assay type: biochemical
Conditions: test dose of 10^−7 M
Experimental: An in vitro assay for inhibition of farnesyl transferase was performed essentially as described in WO 98/40383, pages 33-34.

An inhibition at 0.1 µM of at least 10% was found for `N#Cc1ccc(Cn2cnnc2CN(Cc2ccc(F)cc2F)C(=O)c2ccc(Br)s2)cc1` [compound 218] in this work.

An inhibition at 0.1 µM of at least 10% was found for `N#Cc1ccc(Cn2cnnc2CN(CCc2ccc(Br)cc2)C(=O)c2ccc(Br)o2)cc1` [compound 219] in this work.

An inhibition at 0.1 µM of at least 10% was found for `COc1cc(C(=O)N(CCc2ccc(Br)cc2)Cc2nncn2Cc2ccc(C#N)cc2)nc2ccccc12` [compound 220] in this work.

An inhibition at 0.1 µM of at least 10% was found for `Cc1ccc(C(=O)N(Cc2ccc(F)cc2F)Cc2nncn2Cc2ccc(C#N)cc2)cc1-c1cc(Cl)ccc1Cl` [compound 221] in this work.

An inhibition at 0.1 µM of at least 10% was found for `N#Cc1ccc(Cn2cnnc2CN(CCc2ccc(Br)cc2)C(=O)c2cccc(Br)c2)cc1` [compound 222] in this work.

An inhibition at 0.1 µM of at least 10% was found for `N#Cc1ccc(Cn2cnnc2CN(CCc2ccc(Br)cc2)C(=O)c2cc3ccccc3s2)cc1` [compound 223] in this work.

An inhibition at 0.1 µM of at least 10% was found for `Cc1ccc(C(=O)N(Cc2ccc(F)cc2F)Cc2nncn2Cc2ccc(C#N)cc2)cc1-c1ccc(F)c(Cl)c1` [compound 224] in this work.

An inhibition at 0.1 µM of at least 10% was found for `Cc1ccc(C)c(/C=C/C(=O)N(Cc2ccc(F)cc2F)Cc2nncn2Cc2ccc(C#N)cc2)c1` [compound 225] in this work.

An inhibition at 0.1 µM of at least 10% was found for `N#Cc1ccc(Cn2cnnc2CN(Cc2cc(C(F)(F)F)cc(C(F)(F)F)c2)C(=O)c2ccc3ccccc3n2)cc1` [compound 226] in this work.

An inhibition at 0.1 µM of at least 10% was found for `N#Cc1ccc(Cn2cnnc2CN(Cc2ccc(F)cc2F)C(=O)c2cccc(-c3cccc(C(F)(F)F)c3)c2)cc1` [compound 227] in this work.

An inhibition at 0.1 µM of at least 10% was found for `N#Cc1ccc(Cn2cnnc2CN(Cc2ccc(F)cc2F)C(=O)c2ccc(Br)o2)cc1` [compound 229] in this work.

An inhibition at 0.1 µM of at least 10% was found for `Cc1cccc(Cc2nnc(CN(c3ccc(Oc4ccccc4)cc3)S(=O)(=O)c3ccc(-c4ccc(F)c(Cl)c4)cc3C)n2Cc2cccc(C)n2)n1` [compound 230] in this work.

An inhibition at 0.1 µM of at least 10% was found for `N#Cc1ccc(Cn2cnnc2CN(Cc2ccc(F)cc2F)C(=O)/C=C/c2cccc(C(F)(F)F)c2)cc1` [compound 231] in this work.

An inhibition at 0.1 µM of at least 10% was found for `N#Cc1ccc(Cn2cnnc2CN(Cc2ccccc2)C(=O)c2ccc3ccccc3n2)cc1` [compound 232] in this work.

An inhibition at 0.1 µM of at least 10% was found for `Cc1ccc(C(=O)N(CCc2ccc(Br)cc2)Cc2nncn2Cc2ccc(C#N)cc2)cc1C` [compound 233] in this work.

An inhibition at 0.1 µM of at least 10% was found for `N#Cc1ccc(Cn2cnnc2CN(Cc2c(F)cccc2F)c2ccc(Oc3ccccc3)cc2)cc1` [compound 234] in this work.

An inhibition at 0.1 µM of at least 10% was found for `COc1ccc(CCN(Cc2nncn2Cc2ccc(C#N)cc2)C(=O)c2ccc3ccccc3n2)cc1` [compound 236] in this work.

An inhibition at 0.1 µM of at least 10% was found for `COc1ccc2oc(C(=O)N(CCc3ccc(Br)cc3)Cc3nncn3Cc3ccc(C#N)cc3)cc2c1` [compound 237] in this work.

An inhibition at 0.1 µM of at least 10% was found for `N#Cc1ccc(Cn2cnnc2CN(Cc2c(F)ccc(F)c2F)c2ccc(Oc3ccccc3)cc2)cc1` [compound 238] in this work.

An inhibition at 0.1 µM of at least 10% was found for `N#Cc1ccc(Cn2cnnc2CN(Cc2ccc(F)cc2F)C(=O)c2cccc(-c3ccsc3)c2)cc1` [compound 239] in this work.

An inhibition at 0.1 µM of at least 10% was found for `N#Cc1ccc(Cn2cnnc2CN(Cc2ccc(F)cc2F)C(=O)/C=C/c2cccc(Br)c2)cc1` [compound 241] in this work.

An inhibition at 0.1 µM of at least 10% was found for `Cc1ccccc1-c1cccc(C(=O)N(Cc2ccc(F)cc2F)Cc2nncn2Cc2ccc(C#N)cc2)c1` [compound 242] in this work.

An inhibition at 0.1 µM of at least 10% was found for `N#Cc1ccc(Cn2cnnc2CN(Cc2ccc(F)cc2F)C(=O)c2cccc(Br)c2)cc1` [compound 243] in this work.

An inhibition at 0.1 µM of at least 10% was found for `N#Cc1ccc(Cn2cnnc2CN(CCc2ccc(Br)cc2)C(=O)c2ccc3c(c2)OCO3)cc1` [compound 244] in this work.

An inhibition at 0.1 µM of at least 10% was found for `N#Cc1ccc(Cn2cnnc2CN(Cc2ccc(F)cc2F)C(=O)/C=C/c2cc(F)cc(C(F)(F)F)c2)cc1` [compound 245] in this work.

An inhibition at 0.1 µM of at least 10% was found for `N#Cc1ccc(Cn2cnnc2CN(Cc2ccc(F)cc2F)C(=O)c2cccc(Cl)c2)cc1` [compound 246] in this work.

An inhibition at 0.1 µM of at least 10% was found for `N#Cc1ccc(Cn2cnnc2CN(Cc2ccco2)C(=O)c2ccc3ccccc3n2)cc1` [compound 247] in this work.

An inhibition at 0.1 µM of at least 10% was found for `N#Cc1ccc(Cn2cnnc2CN(C(=O)c2ccc3ccccc3n2)c2ccc(N3CCOCC3)cc2)cc1` [compound 248] in this work.

An inhibition at 0.1 µM of at least 10% was found for `N#Cc1ccc(Cn2cnnc2CN(Cc2ccc(F)cc2F)C(=O)/C=C/c2ccccc2Cl)cc1` [compound 249] in this work.

An inhibition at 0.1 µM of at least 10% was found for `N#Cc1ccc(Cn2cnnc2CN(Cc2ccc(F)cc2F)C(=O)/C=C/c2ccc(Cl)c(Cl)c2)cc1` [compound 250] in this work.

An inhibition at 0.1 µM of at least 10% was found for `N#Cc1ccc(Cn2cnnc2CN(CCc2ccc(Br)cc2)C(=O)c2cc3ccccc3o2)cc1` [compound 251] in this work.

An inhibition at 0.1 µM of at least 10% was found for `N#Cc1ccc(Cn2cnnc2CN(Cc2ccc(F)cc2F)C(=O)c2cc3ccccc3oc2=O)cc1` [compound 252] in this work.

An inhibition at 0.1 µM of at least 10% was found for `Cc1cccc(C(=O)N(Cc2ccc(F)cc2F)Cc2nncn2Cc2ccc(C#N)cc2)c1` [compound 253] in this work.

An inhibition at 0.1 µM of at least 10% was found for `Cc1cccc(/C=C/C(=O)N(Cc2ccc(F)cc2F)Cc2nncn2Cc2ccc(C#N)cc2)c1` [compound 254] in this work.

An inhibition at 0.1 µM of at least 10% was found for `COC(=O)c1cc(C)nc(N(Cc2nnc[nH]2)Cc2ccc(F)cc2F)[n+]1Cc1ccc(C#N)cc1` [compound 255] in this work.

An inhibition at 0.1 µM of at least 10% was found for `N#Cc1ccc(Cn2cnnc2CN(C(=O)c2ccc3ccccc3n2)c2ccc(Oc3ccccc3)cc2)cc1` [compound 256] in this work.

An inhibition at 0.1 µM of at least 10% was found for `N#Cc1ccc(Cn2cnnc2CN(c2ccc(Oc3ccccc3)cc2)c2nccc(C(F)(F)F)n2)cc1` [compound 257] in this work.

An inhibition at 0.1 µM of at least 10% was found for `CC1=C(C(=O)N(Cc2ccc(F)cc2F)Cc2nncn2Cc2ccc(C#N)cc2)Cc2ccccc21` [compound 258] in this work.

An inhibition at 0.1 µM of at least 10% was found for `N#Cc1ccc(Cn2cnnc2CN(Cc2ccc(F)cc2F)C(=O)c2cccc(-c3ccccc3C(F)(F)F)c2)cc1` [compound 259] in this work.

An inhibition at 0.1 µM of at least 10% was found for `Cc1ccccc1-c1cc(C(=O)N(Cc2ccc(F)cc2F)Cc2nncn2Cc2ccc(C#N)cc2)ccc1C` [compound 260] in this work.

An inhibition at 0.1 µM of at least 10% was found for `N#Cc1ccc(Cn2cnnc2CN(CCC(c2ccccc2)c2ccccc2)C(=O)C2CCN(S(=O)(=O)c3ccc(F)cc3)CC2)cc1` [compound 261] in this work.

An inhibition at 0.1 µM of at least 10% was found for `Cc1ccc(C(=O)N(Cc2ccc(F)cc2F)Cc2nncn2Cc2ccc(C#N)cc2)cc1C` [compound 262] in this work.

An inhibition at 0.1 µM of at least 10% was found for `N#Cc1ccc(Cn2cnnc2CN(CCc2ccc(Cl)cc2)C(=O)c2ccc3ccccc3n2)cc1` [compound 264] in this work.

An inhibition at 0.1 µM of at least 10% was found for `N#Cc1ccc(Cn2cnnc2CN(CCc2ccc(Br)cc2)C(=O)c2ccc3ccccc3c2)cc1` [compound 265] in this work.

An inhibition at 0.1 µM of at least 10% was found for `N#Cc1ccc(Cn2cnnc2CN(Cc2ccc(F)cc2F)C(=O)/C(=C/c2ccccc2)c2ccccc2)cc1` [compound 266] in this work.

An inhibition at 0.1 µM of at least 10% was found for `COc1ccccc1/C=C/C(=O)N(Cc1ccc(F)cc1F)Cc1nncn1Cc1ccc(C#N)cc1` [compound 267] in this work.

An inhibition at 0.1 µM of at least 10% was found for `COc1ccc2oc(C(=O)N(Cc3ccc(F)cc3F)Cc3nncn3Cc3ccc(C#N)cc3)cc2c1` [compound 268] in this work.

An inhibition at 0.1 µM of at least 10% was found for `N#Cc1ccc(Cn2cnnc2CN(CCc2ccc(Br)cc2)C(=O)c2ccc3ccccc3n2)cc1` [compound 269] in this work.

An inhibition at 0.1 µM of at least 10% was found for `N#Cc1ccc(Cn2cnnc2CN(Cc2ccc(F)cc2F)C(=O)c2cc3ccccc3s2)cc1` [compound 270] in this work.

An inhibition at 0.1 µM of at least 10% was found for `N#Cc1ccc(Cn2cnnc2CN(CCSCc2c(F)cccc2Cl)C(=O)c2ccc3ccccc3n2)cc1` [compound 271] in this work.

An inhibition at 0.1 µM of at least 10% was found for `N#Cc1ccc(Cn2cnnc2CN(Cc2ccc(F)cc2F)C(=O)c2ccc(-c3ccc(F)c(Cl)c3)o2)cc1` [compound 272] in this work.

An inhibition at 0.1 µM of at least 10% was found for `O=C(c1ccc2ccccc2n1)N(Cc1ccc(F)cc1F)Cc1nncn1Cc1ccc([N+](=O)[O-])cc1` [compound 273] in this work.

An inhibition at 0.1 µM of at least 10% was found for `N#Cc1ccc(Cn2cnnc2CN(Cc2ccc(F)cc2F)C(=O)c2ccc(-c3ccc(F)cc3)o2)cc1` [compound 274] in this work.

An inhibition at 0.1 µM of at least 10% was found for `N#Cc1ccc(Cn2cnnc2CN(Cc2cccc(Cl)c2)C(=O)c2ccc3ccccc3n2)cc1` [compound 275] in this work.

An inhibition at 0.1 µM of at least 10% was found for `N#Cc1ccc(Cn2cnnc2CN(CCc2ccc(F)cc2)C(=O)c2ccc3ccccc3n2)cc1` [compound 276] in this work.

An inhibition at 0.1 µM of at least 10% was found for `Cc1cc(C(=O)N(Cc2ccc(F)cc2F)Cc2nncn2Cc2ccc(C#N)cc2)ccc1Br` [compound 277] in this work.

An inhibition at 0.1 µM of at least 10% was found for `N#Cc1ccc(Cn2cnnc2CN(Cc2ccc(F)cc2F)C(=O)c2cccc(-c3ccsc3)n2)cc1` [compound 278] in this work.

An inhibition at 0.1 µM of at least 10% was found for `N#Cc1ccc(Cn2cnnc2CN(Cc2ccc(F)cc2F)C(=O)c2cccc(Cl)n2)cc1` [compound 279] in this work.

An inhibition at 0.1 µM of at least 10% was found for `N#Cc1ccc(Cn2cnnc2CN(Cc2ccccc2OC(F)(F)F)C(=O)c2ccc3ccccc3n2)cc1` [compound 280] in this work.

An inhibition at 0.1 µM of at least 10% was found for `N#Cc1ccc(Cn2cnnc2CN(Cc2ccc(F)cc2F)C(=O)c2ccc(-c3ccccc3C(F)(F)F)o2)cc1` [compound 281] in this work.

An inhibition at 0.1 µM of at least 10% was found for `C/C(=C\c1ccccc1)C(=O)N(Cc1ccc(F)cc1F)Cc1nncn1Cc1ccc(C#N)cc1` [compound 282] in this work.

An inhibition at 0.1 µM of at least 10% was found for `N#Cc1ccc(Cn2cnnc2CN(Cc2ccc(F)cc2F)C(=O)c2cccc(-c3cc(Cl)cc(Cl)c3)c2)cc1` [compound 283] in this work.

An inhibition at 0.1 µM of at least 10% was found for `N#Cc1ccc(Cn2cnnc2CN(Cc2ccc(Cl)cc2Cl)C(=O)c2ccc3ccccc3n2)cc1` [compound 284] in this work.

An inhibition at 0.1 µM of at least 10% was found for `N#Cc1ccc(Cn2cnnc2CN(Cc2ccc(F)cc2F)C(=O)c2cccc(Br)n2)cc1` [compound 285] in this work.

An inhibition at 0.1 µM of at least 10% was found for `N#Cc1ccc(Cn2cnnc2CN(Cc2ccc(Cl)c(Cl)c2)C(=O)c2ccc3ccccc3n2)cc1` [compound 286] in this work.

An inhibition at 0.1 µM of at least 10% was found for `Cc1ccc(C(=O)N(Cc2ccc(F)cc2F)Cc2nncn2Cc2ccc(C#N)cc2)cc1-c1ccsc1` [compound 288] in this work.

An inhibition at 0.1 µM of at least 10% was found for `N#Cc1ccc(Cn2cnnc2CN(Cc2ccc(F)cc2F)C(=O)C2=Cc3ccccc3OC2)cc1` [compound 289] in this work.

An inhibition at 0.1 µM of at least 10% was found for `COc1cc(Cn2cnnc2CN(Cc2ccc(F)cc2F)C(=O)c2ccc3ccccc3n2)ccc1[N+](=O)[O-]` [compound 290] in this work.

An inhibition at 0.1 µM of at least 10% was found for `N#Cc1ccc(Cn2cnnc2CN(Cc2ccc(F)cc2F)C(=O)c2cc(Br)cc3c2OCC3)cc1` [compound 291] in this work.
